Test results published in publication PMC8006202, “Influence of YES1 Kinase and Tyrosine Phosphorylation on the Activity of OCT1” (Frontiers in Pharmacology, 2021).

Experiments:
human OCT1 (hOCT1) = target: T1, human OCT1 (hOCT1) (Homo sapiens, UniProt O15245); experiment: Cellular uptake of [14C] TEA or [14C] metformin in HEK293 cells overexpressing hOCT1, with or without inhibitor; type: cell-based; settings: HEK293-hOCT1, TKI 10 µM, Figure 2D
T1 construct: expressed in transfected cells
T1 sequence (O15245 1-554): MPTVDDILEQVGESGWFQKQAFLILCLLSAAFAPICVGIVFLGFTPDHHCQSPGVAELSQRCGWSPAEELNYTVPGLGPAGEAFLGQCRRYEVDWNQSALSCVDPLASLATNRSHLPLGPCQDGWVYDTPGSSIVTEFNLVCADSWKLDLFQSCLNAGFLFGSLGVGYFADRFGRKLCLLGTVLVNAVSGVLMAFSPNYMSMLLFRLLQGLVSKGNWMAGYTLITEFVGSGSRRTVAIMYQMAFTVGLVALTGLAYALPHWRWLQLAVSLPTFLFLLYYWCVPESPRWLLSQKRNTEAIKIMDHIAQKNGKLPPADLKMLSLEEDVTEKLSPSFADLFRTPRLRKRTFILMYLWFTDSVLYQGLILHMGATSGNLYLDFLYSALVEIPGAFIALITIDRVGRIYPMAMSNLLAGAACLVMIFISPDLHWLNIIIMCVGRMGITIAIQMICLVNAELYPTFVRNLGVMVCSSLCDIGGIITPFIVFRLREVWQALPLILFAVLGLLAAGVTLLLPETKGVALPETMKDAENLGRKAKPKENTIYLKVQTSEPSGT
Procedure: (§1) Human embryonic kidney (HEK293) cells were obtained from the American Type Culture Collection (ATCC, Manassas, VA). HEK293 cells stably transfected with mouse OCT1 (mOCT1) or human OCT1 (hOCT1) were cultured in Dulbecco’s Modified Eagle Media (DMEM) media supplemented with 10% fetal bovine serum (FBS) and grown at 37°C in a humidified incubator containing 5% CO2. Radiolabeled [^14C] TEA and [^14C] metformin were obtained from American Radiochemicals (St. Louis, MO). Cellular uptake assays were performed 48 h following transient transfection by Lipofectamine 3000 Transfection Reagent (Thermo Fisher Scientific, Waltham, MA). ON-TARGETplus Human YES1 siRNA was obtained from Dharmacon (Lafayette, CO). RNA extraction kits were obtained from Omega Bio-tek (Norcross, GA).
(§2) The results were normalized to uptake values in cells stably transfected with an empty vector treated with vehicle alone (Supplementary Figure S1). Prior to cellular accumulation experiments, cells were grown to 90% confluence on poly-lysine coated multi-well plates. For uptake studies, cells were rinsed with warm PBS and incubated in the presence of a vehicle or inhibitor, prepared in serum and phenol red-free DMEM media for 15 min. Subsequently, media was removed followed by the addition of radiolabeled TEA and metformin along with inhibitor, and cellular uptake was measured after a 15-min co-incubation period. Total radioactivity originating from TEA and metformin was determined using liquid scintillation counting after lysing the cells with 1 N NaOH, a neutralizing step with 2 M HCl. A Pierce protein assay (Thermo Fisher Scientific, Waltham, MA) was used to normalize radioactivity readings to account for variation in cell number between samples.

OCT1 [1] = experiment: Dose-response OCT1 uptake inhibition, summarised across mOCT1 and hOCT1 models and test substrates; type: cell-based, human and mouse; settings: for OCT1 inhibition: Yes/No; for OCT1 function in dose-response experiments: species-independent, regardless of test substrate
Procedure: as §1
as §2, with “Uptake assays were performed with radiolabeled TEA (2 µM) or metformin (5 µM) as described previously ([Sprowl et al., 2013]; [Pabla et al., 2015]) in the presence or absence of TKIs. The results” for “The results”

OCT2 (hOCT2) = target: T2, OCT2 (hOCT2) (Homo sapiens, UniProt O15244); settings: cited from earlier work; for OCT2 inhibition: Yes/No, TKIs previously found to inhibit OCT2
T2 construct: expressed in transfected cells; host or cells: overexpressing cell model
T2 sequence (O15244 1-555): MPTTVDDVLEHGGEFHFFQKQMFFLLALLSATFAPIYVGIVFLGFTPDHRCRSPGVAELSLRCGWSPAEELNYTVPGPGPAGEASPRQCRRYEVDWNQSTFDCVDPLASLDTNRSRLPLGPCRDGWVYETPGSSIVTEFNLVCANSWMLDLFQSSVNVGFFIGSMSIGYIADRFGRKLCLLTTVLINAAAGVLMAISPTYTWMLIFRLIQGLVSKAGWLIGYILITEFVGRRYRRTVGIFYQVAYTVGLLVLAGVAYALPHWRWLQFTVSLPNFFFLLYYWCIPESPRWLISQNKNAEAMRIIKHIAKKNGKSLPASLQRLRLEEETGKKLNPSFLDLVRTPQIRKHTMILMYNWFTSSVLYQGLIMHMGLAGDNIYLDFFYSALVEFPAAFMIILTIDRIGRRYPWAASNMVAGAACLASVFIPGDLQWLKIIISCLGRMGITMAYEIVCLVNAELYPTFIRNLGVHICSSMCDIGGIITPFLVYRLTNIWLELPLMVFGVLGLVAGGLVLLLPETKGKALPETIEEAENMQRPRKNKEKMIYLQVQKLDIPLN

mouse OCT1 (mOCT1) = target: T3, mouse OCT1 (mOCT1) (Mus musculus, UniProt O08966); experiment: Cellular uptake of [14C] TEA in HEK293 cells overexpressing mOCT1, with or without inhibitor; type: cell-based
T3 construct: expressed in transfected cells
T3 sequence (O08966 1-556): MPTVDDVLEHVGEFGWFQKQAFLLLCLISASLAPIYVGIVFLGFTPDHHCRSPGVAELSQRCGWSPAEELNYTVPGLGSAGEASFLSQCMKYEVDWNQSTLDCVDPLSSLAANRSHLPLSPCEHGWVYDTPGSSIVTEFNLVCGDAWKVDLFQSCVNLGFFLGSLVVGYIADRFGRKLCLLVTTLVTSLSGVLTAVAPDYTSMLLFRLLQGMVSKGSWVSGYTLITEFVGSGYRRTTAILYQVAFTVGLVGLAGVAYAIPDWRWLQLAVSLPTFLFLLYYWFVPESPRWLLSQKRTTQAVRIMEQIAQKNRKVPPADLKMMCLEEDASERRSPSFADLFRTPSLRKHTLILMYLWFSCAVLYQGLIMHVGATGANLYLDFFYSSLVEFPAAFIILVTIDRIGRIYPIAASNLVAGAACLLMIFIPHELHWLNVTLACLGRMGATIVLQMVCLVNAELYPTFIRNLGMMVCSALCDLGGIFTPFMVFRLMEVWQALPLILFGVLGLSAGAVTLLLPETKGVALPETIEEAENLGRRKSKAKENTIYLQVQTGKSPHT
Procedure: as §1
as §2, with “Uptake assays were performed with radiolabeled TEA (2 µM) or metformin (5 µM) as described previously ([Sprowl et al., 2013]; [Pabla et al., 2015]) in the presence or absence of TKIs. The results” for “The results”

OCT1 (mouse and human) = experiment: Dose-response OCT1 uptake inhibition, summarised across mOCT1 and hOCT1 models and test substrates; type: cell-based; settings: mouse and human, probe [14C] TEA (2 µM) or [14C] metformin (5 µM); range over mOCT1/hOCT1 models and test substrates
Procedure: as §1
as §2, with “Uptake assays were performed with radiolabeled TEA (2 µM) or metformin (5 µM) as described previously ([Sprowl et al., 2013]; [Pabla et al., 2015]) in the presence or absence of TKIs. The results” for “The results”

OCT3 = target: T4, OCT3 (Homo sapiens, UniProt O75751); experiment: OCT3 transport inhibition by TKIs (Supplementary Figure S2); type: cell-based
T4 sequence (O75751 1-556): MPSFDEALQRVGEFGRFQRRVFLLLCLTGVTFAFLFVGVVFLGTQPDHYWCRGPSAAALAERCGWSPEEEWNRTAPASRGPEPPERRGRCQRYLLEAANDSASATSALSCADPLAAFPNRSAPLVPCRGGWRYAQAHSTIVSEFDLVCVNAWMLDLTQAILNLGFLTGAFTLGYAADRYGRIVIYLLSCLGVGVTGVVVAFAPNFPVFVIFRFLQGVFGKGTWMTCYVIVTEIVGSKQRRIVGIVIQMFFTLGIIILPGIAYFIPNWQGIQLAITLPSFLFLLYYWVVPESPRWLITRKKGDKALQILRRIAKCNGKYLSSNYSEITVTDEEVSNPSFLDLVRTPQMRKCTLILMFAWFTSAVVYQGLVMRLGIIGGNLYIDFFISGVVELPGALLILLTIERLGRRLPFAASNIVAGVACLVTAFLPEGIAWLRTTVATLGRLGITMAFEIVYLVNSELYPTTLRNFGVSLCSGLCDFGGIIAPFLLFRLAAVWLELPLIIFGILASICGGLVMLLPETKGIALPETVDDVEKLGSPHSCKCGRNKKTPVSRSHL
Procedure: as §2, with “Uptake assays were performed with radiolabeled TEA (2 µM) or metformin (5 µM) as described previously ([Sprowl et al., 2013]; [Pabla et al., 2015]) in the presence or absence of TKIs. The results” for “The results”

YES1 / hOCT1 = experiment: Chemical genetics: hOCT1 uptake assay in HEK293 cells transfected with wild-type YES1 or T348I gatekeeper mutant, then dasatinib; type: cell-based, human; settings: HEK293-hOCT1, dasatinib 1 µM 15 min, [14C] TEA uptake
Procedure: as §2

OCT1 [2] = system: OCT1; design: method as in Furmanski et al., 2013; settings: ref Furmanski et al., 2013; cited from earlier work
hepatic OCT1 = target: T5, hepatic OCT1 (Mus musculus, UniProt O08966); experiment: Plasma isobutyryl L-carnitine (IBC) after a single oral dose of dasatinib in mice; type: in vivo; design: from tissue; host or cells: liver of wild-type mice, in vivo; settings: single oral dose 15 mg/kg
T5 sequence (O08966 1-556): T3 sequence (O08966 1-556)

| OCT1 function (TEA transport) in presence of TKI (human OCT1 (hOCT1)) | OCT3 function in presence of TKI (OCT3) | SMILES | OCT1 inhibition (OCT1 [1]) | OCT2 inhibition (OCT2 (hOCT2); ref Sprowl et al., 2016) | IC50 (mouse OCT1 (mOCT1); HEK293-mOCT1, [14C] TEA 2 µM, 15 min pre-incubation + 15 min co-incubation, read-out: IC50, mOCT1-mediated transport of TEA) [nM] | Ki (mouse OCT1 (mOCT1); read-out: inhibition constant (Ki), Dixon plot, mOCT1) [nM] | IC50 at 15 min (OCT1 (mouse and human)) [nM] | OCT1 function in dose-response experiments (OCT1 [1]) | dasatinib-mediated OCT1 inhibition in cells with TKI-resistant YES1 (T348I gatekeeper) mutant (YES1 / hOCT1) | dasatinib-mediated OCT1 inhibition in cells with YES1 wild-type construct (YES1 / hOCT1) | transported substrate of OCT1 (OCT1 [2]) | OCT2 inhibition, co-incubation designs (OCT2 (hOCT2); ref Minematsu and Giacomini, 2011) | OCT2 function, pre-incubation conditions (OCT2 (hOCT2); ref Sprowl et al., 2016) | plasma levels of IBC after dasatinib, OCT1/2-deficient or OCT1/2/MATE1-deficient mice (hepatic OCT1) | plasma levels of IBC after dasatinib, wild-type mice (hepatic OCT1; wild-type mice) |
| --- | --- | --- | --- | --- | --- | --- | --- | --- | --- | --- | --- | --- | --- | --- | --- |
| not | – | CS(=O)(=O)CCNCc1ccc(-c2ccc3ncnc(Nc4ccc(OCc5cccc(F)c5)c(Cl)c4)c3c2)o1 [Lapatinib, lapatinib] | No | No | – | – | – | – | – | – | – | – | – | – | – |
| inhibit OCT1 function | no influence | COc1cc(Nc2c(C#N)cnc3cc(OCCCN4CCN(C)CC4)c(OC)cc23)c(Cl)cc1Cl [bosutinib] | – | – | – | – | – | – | – | – | – | – | – | – | – |
| inhibit OCT1 function | no influence | CCc1nc(C(N)=O)c(Nc2ccc(N3CCC(N4CCN(C)CC4)CC3)c(OC)c2)nc1NC1CCOCC1 [Gilteritinib, gilteritinib] | Yes | Yes | – | – | 10 to 20 | potently inhibited | – | – | – | – | – | – | – |

| SMILES | OCT1 function (TEA transport) in presence of TKI (human OCT1 (hOCT1)) | OCT3 function in presence of TKI (OCT3) | OCT1 inhibition (OCT1 [1]) | OCT2 inhibition (OCT2 (hOCT2); ref Sprowl et al., 2016) | IC50 (mouse OCT1 (mOCT1); HEK293-mOCT1, [14C] TEA 2 µM, 15 min pre-incubation + 15 min co-incubation, read-out: IC50, mOCT1-mediated transport of TEA) [nM] | Ki (mouse OCT1 (mOCT1); read-out: inhibition constant (Ki), Dixon plot, mOCT1) [nM] | IC50 at 15 min (OCT1 (mouse and human)) [nM] | OCT1 function in dose-response experiments (OCT1 [1]) | dasatinib-mediated OCT1 inhibition in cells with TKI-resistant YES1 (T348I gatekeeper) mutant (YES1 / hOCT1) | dasatinib-mediated OCT1 inhibition in cells with YES1 wild-type construct (YES1 / hOCT1) | transported substrate of OCT1 (OCT1 [2]) | OCT2 inhibition, co-incubation designs (OCT2 (hOCT2); ref Minematsu and Giacomini, 2011) | OCT2 function, pre-incubation conditions (OCT2 (hOCT2); ref Sprowl et al., 2016) | plasma levels of IBC after dasatinib, OCT1/2-deficient or OCT1/2/MATE1-deficient mice (hepatic OCT1) | plasma levels of IBC after dasatinib, wild-type mice (hepatic OCT1; wild-type mice) |
| --- | --- | --- | --- | --- | --- | --- | --- | --- | --- | --- | --- | --- | --- | --- | --- |
| Cc1nc(Nc2ncc(C(=O)Nc3c(C)cccc3Cl)s2)cc(N2CCN(CCO)CC2)n1 [Dasatinib, dasatinib] | inhibit OCT1 function | potently inhibiting | Yes | Yes | […] | 870 | […] | potently inhibited | rescue | retained sensitivity | not themselves transported substrate | only a weak inhibitor | potently inhibits | not | transient, statistically significant increase |
